The target of one data set is aurora B (Homo sapiens, UniProt Q96GD4). As to the kind of experiment: radioisotope-based P81 filter-binding assay, aurora B kinase. To be noted: averaged from two independent dose-response curves; read-out: Enzyme assay IC50 Aur B. It is filed as biochemical. The procedure:
(§1) Compounds of formula (I)-(IV) were evaluated for abilities in inhibiting protein kinases aurora B and FLT-3 activity using radioisotope-based P81 filter-binding assay (Table 1).

Data set [1] has as its system HepG2 human hepatocellular carcinoma cells. As to the kind of experiment: anti-proliferation, SRB colorimetric assay, HepG2. It is filed as cell-based. The following applies: concentration required for 50% growth inhibition, read-out: IC50 (μM, mean ± S.D.). The text has this: HCT116 human colorectal carcinoma cells (Table 3), HepG2 human hepatocellular carcinoma cells (Table 4), and MV4-11 human acute myelomonocytic leukemia cells (Table 5).
In general terms: In SRB staining, fixed cells bind dye roughly in proportion to their protein.

Data set [2] deals with MV4-11 human acute myelomonocytic leukemia cells. As to the kind of experiment: anti-proliferation, SRB colorimetric assay, MV4-11. It is filed as cell-based. To be noted: concentration required for 50% growth inhibition. The procedure: HCT116 human colorectal carcinoma cells (Table 3), HepG2 human hepatocellular carcinoma cells (Table 4), and MV4-11 human acute myelomonocytic leukemia cells (Table 5). Cells were treated with the test compound and the concentration required for 50% growth inhibition (IC50) determined by sulfomodamine B (SRB) colorimetric assay.

A further data set has as its target T1, FLT-3 (Homo sapiens, UniProt P36888).
T1 sequence (P36888 27-993): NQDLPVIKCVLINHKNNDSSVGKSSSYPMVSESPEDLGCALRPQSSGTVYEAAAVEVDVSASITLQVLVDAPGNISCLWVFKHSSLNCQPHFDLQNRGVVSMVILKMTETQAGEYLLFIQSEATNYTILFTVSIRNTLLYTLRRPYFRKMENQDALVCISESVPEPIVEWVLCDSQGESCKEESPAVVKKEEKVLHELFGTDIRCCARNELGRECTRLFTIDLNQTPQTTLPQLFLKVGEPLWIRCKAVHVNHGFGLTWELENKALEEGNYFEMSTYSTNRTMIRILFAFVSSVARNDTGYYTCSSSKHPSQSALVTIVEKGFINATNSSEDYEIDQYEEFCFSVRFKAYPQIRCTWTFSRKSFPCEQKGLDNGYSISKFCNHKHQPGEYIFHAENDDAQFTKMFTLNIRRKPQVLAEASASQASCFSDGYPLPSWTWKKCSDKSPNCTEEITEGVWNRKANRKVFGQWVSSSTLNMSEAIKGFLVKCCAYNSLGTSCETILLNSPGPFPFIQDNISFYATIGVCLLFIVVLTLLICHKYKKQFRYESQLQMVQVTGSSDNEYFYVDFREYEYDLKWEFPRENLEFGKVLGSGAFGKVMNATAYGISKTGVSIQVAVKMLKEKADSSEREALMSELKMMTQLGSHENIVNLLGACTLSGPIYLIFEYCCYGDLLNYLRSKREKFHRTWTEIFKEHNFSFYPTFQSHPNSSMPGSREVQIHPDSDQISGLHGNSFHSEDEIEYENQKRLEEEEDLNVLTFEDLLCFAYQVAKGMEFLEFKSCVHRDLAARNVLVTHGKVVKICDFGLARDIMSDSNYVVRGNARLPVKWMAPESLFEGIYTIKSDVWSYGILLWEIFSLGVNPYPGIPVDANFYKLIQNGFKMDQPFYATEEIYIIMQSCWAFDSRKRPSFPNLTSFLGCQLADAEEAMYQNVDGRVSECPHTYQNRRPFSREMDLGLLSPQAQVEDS
Briefly: radioisotope-based P81 filter-binding assay, FLT-3 kinase. Type of data set: biochemical. To be noted: averaged from two independent dose-response curves; read-out: Enzyme assay IC50 FLT-3. The procedure:
as §1

Data set [3] deals with A549 human lung carcinoma cells. As to the kind of experiment: anti-proliferation, SRB colorimetric assay, A549. The following applies: concentration required for 50% growth inhibition, read-out: IC50 (μM, mean ± S.D.). It is filed as cell-based.

Molecules are shown by their SMILES.

Sequence of aurora B (Q96GD4 whole entry): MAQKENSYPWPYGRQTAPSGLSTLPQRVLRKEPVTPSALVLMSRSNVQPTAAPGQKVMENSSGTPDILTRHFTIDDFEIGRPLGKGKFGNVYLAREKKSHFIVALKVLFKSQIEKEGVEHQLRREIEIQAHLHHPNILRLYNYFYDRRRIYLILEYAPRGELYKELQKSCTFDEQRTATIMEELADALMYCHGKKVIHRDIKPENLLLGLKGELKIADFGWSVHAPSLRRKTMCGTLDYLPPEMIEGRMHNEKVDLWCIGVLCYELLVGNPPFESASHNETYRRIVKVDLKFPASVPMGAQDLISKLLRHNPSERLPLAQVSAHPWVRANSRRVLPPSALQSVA

As a reminder, the melting point is the temperature, or range, at which the solid turns liquid. The IC50 is the concentration at which inhibition is half-maximal. With `COc1cc(OC)cc(C(=O)NC(=O)Nc2ccc3c(c2)NC(=O)/C3=C\c2ccc[nH]2)c1` [D30], the melting point was 276 to 281 °C (dec.). On aurora B, the IC50 amounted to 29.8 nM. Further, the IC50 in data set [1] was found to be 0.86 ± 0.02 µM.

The molecule `Cc1cc(C)c(/C=C2\C(=O)Nc3cc(NC(=O)c4c[nH]cc(-c5ccc(F)cc5)c4=O)ccc32)[nH]1` [D140, (Z)—N-(3-((3,5-dimethyl-1H-pyrrol-2-yl)methylene)-2-oxoindolin-6-yl)-5-(4-fluorophenyl)-4-oxo-1,4-dihydropyridine-3-carboxamide] gave a melting point above 300 °C. The molecule also yielded an IC50 in data set [2] of 12.8 nM. The IC50 at FLT-3 is 86.6 nM. For the same molecule, the IC50 on aurora B worked out at 179 nM. The IC50 in data set [1] worked out at 0.56 ± 0.02 µM.

For `COc1ccc(C(=O)NC(=O)Nc2ccc3c(c2)NC(=O)/C3=C\c2ccc[nH]2)cc1` [D15], the IC50 in data set [2] is 6.13 nM; at FLT-3, 334 nM; at aurora B it was 14.9 nM; in data set [1], 0.96 ± 0.03 µM.

With `O=C(NC(=O)c1ccc(Cl)cc1)Nc1ccc2c(c1)NC(=O)/C2=C\c1ccc[nH]1` [D25, (Z)—N-(3-((1H-pyrrol-2-yl)methylene)-2-oxoindolin-6-ylcarbonamoyl)-4-chlorobenzamide], the melting point is 280 to 285 °C (dec.). Moreover, the IC50 in data set [2] stood at 6.14 nM. Further, the IC50 at FLT-3 is 676 nM. For the same molecule, the IC50 on aurora B is 6.5 nM. Also, the IC50 in data set [1] came to 0.94 ± 0.03 µM.

For `Cc1[nH]c(/C=C2\C(=O)Nc3cc(NC(=O)N4CCN(C5CC5)C4=O)ccc32)c(C)c1CC(=O)O` [D97, (Z)-2-(5-((6-(3-cyclopropyl-2-oxoimidazolidine-1-carboxamido)-2-oxoindolin-3-ylidene)methyl)-2,4-dimethyl-1H-pyrrol-3-yl)acetic acid], the IC50 on FLT-3 is 113 nM; on aurora B it was 2.7 nM; in data set [3], 0.83 ± 0.04 µM; in data set [1], 0.87 ± 0.05 µM.

As for `Cc1[nH]c(/C=C2\C(=O)Nc3cc(NC(=O)NC(=O)c4ccc(Cl)c(C(F)(F)F)c4)ccc32)c(C)c1CCC(=O)O` [D37, (Z)-3-(5-((6-(3-(4-chloro-3-(trifluoromethyl)benzoyl)ureido)-2-oxo-indolin-3-ylidene)methyl)-2,4-dimethyl-1H-pyrrol-3-yl)propanoic acid], the IC50 on FLT-3 amounted to 2.4 nM; on aurora B it was 1.6 nM; in data set [1], 0.09 ± 0.04 µM.

For `O=C(NC(=O)c1ccccc1)Nc1ccc2c(c1)NC(=O)/C2=C\c1ccc[nH]1` [D24, (Z)—N-(3-((1H-pyrrol-2-yl)methylene)-2-oxoindolin-6-ylcarbamoyl)benzamide], the melting point is 290 to 295 °C (dec.). Moreover, at FLT-3, the IC50 was above 10000 nM. Moreover, on aurora B, the IC50 came to 5.3 nM. In addition, the IC50 in data set [1] is 0.89 ± 0.03 µM.

`Cc1[nH]c(/C=C2\C(=O)Nc3cc(NC(=O)NC(=O)c4ccc(Cl)c(C(F)(F)F)c4)ccc32)c(C)c1C(=O)O` [D36, (Z)-5-((6-(3-(4-chloro-3-(trifluoromethyl)benzoyl)ureido)-2-oxoindolin-3-ylid-ene)methyl)-2,4-dimethyl-1H-pyrrol-3-carboxylic acid] registered a melting point of 270 to 275 °C. For the same molecule, the IC50 at FLT-3 was determined as 51.6 nM. Also, the IC50 on aurora B amounted to 10.7 nM. The IC50 in data set [1] is 0.12 ± 0.07 µM.

`Cc1[nH]c(/C=C2\C(=O)Nc3cc(NC(=O)NC(=O)c4ccc(Cl)cc4)ccc32)c(C)c1C(=O)O` [D33, (Z)-5-((6-(3-(4-chlorabenzoyl)ureido)-2-oxoindolin-3-ylidene)-methyl)-2,4-dimethyl-1H-pyrrole-3-carboxylic acid] came in with a melting point above 300 °C. Moreover, the IC50 on FLT-3 was determined as 506 nM. For the same molecule, the IC50 on aurora B stood at 3.1 nM. Besides, the IC50 in data set [1] amounted to 0.65 ± 0.05 µM.

Regarding `O=C(CC(=O)Nc1ccc2c(c1)NC(=O)/C2=C\c1ccc[nH]1)Nc1ccc(F)cc1` [D75, (Z)—N^1-(3-((1H-pyrrol-2-yl)methylene)-2-oxoindolin-6-yl)-N^3-(4-fluorophenyl)malonamide], the IC50 at aurora B was found to be 25 nM; in data set [3] it was 0.69 ± 0.05 µM.

As for `O=C(NC(=O)c1ccc(Cl)c(Cl)c1)Nc1ccc2c(c1)NC(=O)/C2=C\c1ccc[nH]1` [D26, (Z)—N-(3-((1H-pyrrol-2-yl)methylene)-2-oxoindolin-6-ylcarbamoyl)-3,4-dichlorobenzamide], the melting point was 295 to 300 °C (dec.). The IC50 in data set [2] turned out to be 1.13 nM. In addition, on FLT-3, the IC50 is above 1000 nM. The IC50 on aurora B was 7.7 nM. Further, the IC50 in data set [1] turned out to be 0.63 ± 0.04 µM.

As for `O=C(NC(=O)c1ccc(C(F)(F)F)cc1)Nc1ccc2c(c1)NC(=O)/C2=C\c1ccc[nH]1` [D27, (Z)—N-(3-((1H-pyrrol-2-yl)methylene)-2-oxoindolin-6-ylcarbamoyl)-4-(trifluoromethyl)benzamide], the melting point was above 300 °C. Besides, at FLT-3, the IC50 was above 1000 nM. The IC50 at aurora B worked out at 40.9 nM. For the same molecule, the IC50 in data set [1] came to 0.86 ± 0.02 µM.

`O=C1Nc2cc(NC(=O)c3c[nH]cc(-c4ccc(F)cc4)c3=O)ccc2/C1=C/c1ccc[nH]1` [D129, (Z)—N-(3-((1H-pyrrol-2-yl)methylene)-2-oxoindolin-6-yl)-5-(4-fluorophenyl)-4-oxo-1,4-dihydropyridine-3-carboxamide] came in with a melting point above 300 °C. Besides, the IC50 in data set [2] is 1.83 nM. The IC50 on FLT-3 amounted to 38.1 nM. The IC50 at aurora B was determined as 128 nM. Besides, the IC50 in data set [3] was determined as 0.45 ± 0.07 µM.

In the case of `Cc1ccc(C(=O)NC(=O)Nc2ccc3c(c2)NC(=O)/C3=C\c2ccc[nH]2)cc1` [D29, (Z)—N-(3-((1H-pyrrol-2-yl)methylene)-2-oxoindolin-6-ylcarbamoyl)-4-methylbenzamide], the melting point was 290 to 295 °C (dec.). The IC50 at FLT-3 was above 1000 nM. For the same molecule, the IC50 on aurora B came out at 18.4 nM. Also, the IC50 in data set [1] was 0.93 ± 0.01 µM.

`O=C1Nc2cc(NC(=O)c3c[nH]cc(-c4ccccc4)c3=O)ccc2/C1=C/c1ccc[nH]1` [D127]: the melting point is above 300 °C. In data set [2], this molecule showed an IC50 of 7.18 nM. The IC50 on FLT-3 worked out at 27.7 nM. The IC50 on aurora B was determined as 38.8 nM. Further, the IC50 in data set [3] stood at 0.49 ± 0.03 µM.

As to `Cc1[nH]c(/C=C2\C(=O)Nc3cc(NC(=O)c4cccn(-c5ccc(F)cc5)c4=O)ccc32)c(C)c1CC(=O)O` [D121, (Z)-2-(5-((6-(1-(4-fluorophenyl)-2-oxo-1,2-dihydropyridine-3-carboxamido)-2-oxoindolin-3-ylidene)methyl)-2,4-dimethyl-1H-pyrrol-3-yl)acetic acid], the melting point was 275 °C (dec.). Inhibition in data set [2] was half-maximal at 3.03 nM (IC50). Besides, at FLT-3, the IC50 is 7.3 nM. Moreover, on aurora B, the IC50 was found to be 5 nM.

With `CN(C)c1ccc(C(=O)NC(=O)Nc2ccc3c(c2)NC(=O)/C3=C\c2ccc[nH]2)cc1` [D31, (Z)—N-(3-((1H-pyrrol-2-yl)methylene)-2-oxoindolin-6-ylcarbamoyl)-4-(dimethylamino)benzamide], the melting point is 285 to 290 °C (dec.). At FLT-3, the IC50 amounted to 134 nM. On aurora B, the IC50 was 159 nM. Besides, in data set [1], the IC50 was 0.63 ± 0.02 µM.

In turn, `O=C1Nc2cc(NC(=O)c3c[nH]cc(-c4ccc(F)cc4)c3=O)c(F)cc2/C1=C/c1ccc[nH]1` [D137, (Z)—N-(3-((1H-pyrrol-2-yl)methylene)-5-fluoro-2-oxoindolin-6-yl)-5-(4-fluorophenyl)-4-oxo-1,4-dihydropyridine-3-carboxamide] came in with a melting point above 300 °C. This molecule registered an IC50 in data set [2] of 0.97 nM. For the same molecule, on FLT-3, the IC50 came out at 37.9 nM. For the same molecule, the IC50 at aurora B was 237 nM.

As to `COc1ccc(-c2c[nH]cc(C(=O)Nc3ccc4c(c3)NC(=O)/C4=C\c3[nH]c(C)c(C(=O)N4CCOCC4)c3C)c2=O)cc1` [D155, (Z)—N-(3-((3,5-dimethyl-4-(morpholine-4-carbonyl)-1H-pyrrol-2-yl)methylene)-2-oxoindolin-6-yl)-5-(4-methoxyphenyl)-4-oxo-1,4-dihydropyridine-3-carboxamide], the melting point is 205 °C (dec.). Moreover, in data set [2], the midpoint of inhibition, the IC50, lay at 1.96 nM. For the same molecule, the IC50 on FLT-3 came to 34.9 nM. Further, the IC50 on aurora B was determined as 42.8 nM.

Values taken from patent publication US8946282B2, “Indolin-2-one derivatives as protein kinase inhibitors” (Annji Pharmaceutical Co., Ltd., priority 2012, dated 2015).
